Literature values, collected in US11147800B2 (Race Oncology Ltd., priority 2013, dated 2021).
Counter-ions that a name gives are not always drawn.

Experiments:
[1] = test system: telomerase-expressing cells and ALT-positive cell lines
[2] = test system: hepatic microsomal enzymes; settings: in vitro
[3] = preclinical
[4] = test system: colon 26, Lewis lung, Ridgway osteosarcoma, B16, Lieberman plasma cell, P388 or L1210 cancer cells
[5] = test system: Human tumor cells
[6] = not given; remark: listed apart in the source
[7] = not given; remark: listed apart in the source
[8] = test system: macrophages
[9] = not given; remark: listed apart in the source
[10] = test system: L1210 leukemia cells; settings: typical of inhibition of DNA topoisomerase II
[11] = not given; remark: listed apart in the source
[12] = test system: Human Platelets
[13] = target: glycogen synthase kinase-3β (GSK-3β) (Homo sapiens, UniProt P49841)
Chain of glycogen synthase kinase-3β (GSK-3β) (P49841 whole entry, species assumed): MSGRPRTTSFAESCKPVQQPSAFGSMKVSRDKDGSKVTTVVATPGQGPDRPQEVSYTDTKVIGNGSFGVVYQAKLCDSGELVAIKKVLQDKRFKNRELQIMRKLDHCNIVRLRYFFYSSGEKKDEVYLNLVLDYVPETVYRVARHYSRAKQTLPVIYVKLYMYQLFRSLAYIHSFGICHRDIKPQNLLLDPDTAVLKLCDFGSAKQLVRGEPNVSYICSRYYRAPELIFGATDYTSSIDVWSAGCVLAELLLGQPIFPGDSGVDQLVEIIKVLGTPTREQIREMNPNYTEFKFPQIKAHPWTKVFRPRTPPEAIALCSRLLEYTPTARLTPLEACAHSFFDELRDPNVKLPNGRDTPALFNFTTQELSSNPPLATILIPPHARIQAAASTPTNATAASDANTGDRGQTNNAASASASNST

[14] = local injection
[15] = single dose study, the last study
[16] = single dose study, triphasic elimination, second study

C(=N\NC1=NCCN1)/c1cccc2cc3c(/C=N/NC4=NCCN4)cccc3cc12 [Formula (III)]
DNA damage response (γH2AX foci partially co-localized at the telomere) [1]: consistently provokes a DNA damage response

C(=NNC1=NCCN1)c1c2ccccc2c(C=NNC2=NCCN2)c2ccccc12 [bisantrene, 9,10-anthracenedicarboxaldehyde bis[(4,5-dihydro-1H-imidazol-2-yl)hydrazine] dihydrochloride]
urinary excretion of the dose (72-hr infusion study, in 24 hr): 4.6%
triphasic elimination, first phase (given as clearances) [15]: 0.1 h
triphasic elimination, second phase (given as clearances) [15]: 1.9 h
triphasic elimination, third phase (given as clearances) [15]: 43.9 h
t½α [16]: 3 min
t½β [16]: 1 h
t½γ [16]: 8 h
substrate for hepatic microsomal enzymes [2]: substrate
Brain levels [3]: extremely low
tissues with the highest concentration (in descending order) [3]: kidney, liver, gallbladder, spleen, lung, and heart
antitumor activity in murine tumor models ([4]; P-388 leukemia and B-16 melanoma): antitumor activity
activity in cancer models, parenteral ([4]; i.v., i.p. or s.c., colon 26, Lewis lung, Ridgway osteosarcoma, B16, Lieberman plasma cell, P388 or L1210): effective
activity in cancer models, oral ([4]; orally): inactive
cross resistance with adriamycin and mitoxantrone [5]: lack of cross resistance
sensitivity in in vitro colony-forming assays ([5]; breast, ovarian, renal, small cell and non-small cell lung, lymphoma, AML, melanoma, gastric, adrenal, head and neck cancer): sensitive
activity in metastatic breast cancer ([6]; Phase II, heavily pretreated patients): active
activity in phase I clinical trials ([6]; hepatocellular cancer and hypernephroma (one patient each), lymphoma, myeloma, melanoma, renal cancer, bladder and lung tumors): showed activity
activity in refractory malignant melanoma ([6]; phase II): inactive
activity in human colon cancer ([6]; tested in vitro or in vivo (phase II advanced colorectal cancer)): inactive
local tissue toxicity if extravasated ([7]; human, in vivo): potent vesicant
patients reporting malaise ([7]; human, in vivo): up to one-half of patients
cardiotoxicity compared with mitoxantrone or doxorubicin ([7]; phase III trial): less cardiotoxic
minimal effective in vivo dose for macrophage activation [8]: 25 mg/kg
cardiotoxicity in animals ([9]; animals): not cardiotoxic
toxic findings ([9]; dogs and monkeys, high doses): leukopenia, anorexia, diarrhea, injection site necrosis, enterocolitis, muscle degeneration, and pulmonary edema
DNA strand breaks [10]: induce protein-associated DNA strand breaks
major dose-limiting toxic effect ([11]; in vivo): leukopenia
DLT ([11]; phase I doses between 190-430 mg/m^2 q3w): neutropenia
platelet aggregation [12]: inhibit platelet aggregation

CN1C(=O)/C(=C2/C(=O)Nc3ccccc32)c2ccccc21 [meisoindigo]
concentration for inhibition of GSK-3β [13]: 5 to 50 nM

O=C([O-])O.[Na+] [sodium bicarbonate]
bisantrene extravasation necrosis [14]: blocked
